Results as given in the CheMixHub viscosity set.
± gives the uncertainty stated by the source.

Assay: xn = mol fraction of the nth substance listed

CCOC(=O)c1ccccc1 + CCCCCCC
viscosity [mPa·s]
Settings	298.15 K	303.15 K	308.15 K	313.15 K	318.15 K
101 kPa, x1 = 0.1042	–	0.417 ± 0.009	0.397 ± 0.008	0.37 ± 0.008	–
101 kPa, x1 = 0.2052	–	0.475 ± 0.01	0.447 ± 0.009	0.42 ± 0.009	–
101 kPa, x1 = 0.3085	–	0.55 ± 0.012	0.514 ± 0.011	0.482 ± 0.01	–
101 kPa, x1 = 0.4071	–	0.63 ± 0.013	0.591 ± 0.012	0.55 ± 0.012	–
101 kPa, x1 = 0.5078	–	0.738 ± 0.016	0.687 ± 0.014	0.64 ± 0.013	–
101 kPa, x1 = 0.6071	–	0.865 ± 0.018	0.802 ± 0.017	0.745 ± 0.016	–
101 kPa, x1 = 0.7074	–	1.03 ± 0.022	0.95 ± 0.02	0.875 ± 0.018	–
101 kPa, x1 = 0.8047	–	1.217 ± 0.025	1.12 ± 0.023	1.03 ± 0.022	–
101 kPa, x1 = 0.9038	–	1.466 ± 0.031	1.34 ± 0.028	1.23 ± 0.026	–
101.3 kPa, x1 = 0.098	0.428 ± 0.004	–	0.387 ± 0.004	–	0.351 ± 0.004
101.3 kPa, x1 = 0.1952	0.484 ± 0.005	–	0.433 ± 0.004	–	0.393 ± 0.004
101.3 kPa, x1 = 0.2948	0.55 ± 0.005	–	0.492 ± 0.005	–	0.44 ± 0.005
101.3 kPa, x1 = 0.3941	0.638 ± 0.006	–	0.564 ± 0.005	–	0.498 ± 0.005
101.3 kPa, x1 = 0.4961	0.747 ± 0.006	–	0.655 ± 0.006	–	0.571 ± 0.005
101.3 kPa, x1 = 0.5985	0.882 ± 0.007	–	0.767 ± 0.007	–	0.662 ± 0.006
101.3 kPa, x1 = 0.6974	1.047 ± 0.009	–	0.912 ± 0.008	–	0.771 ± 0.007
101.3 kPa, x1 = 0.7984	1.263 ± 0.011	–	1.082 ± 0.009	–	0.913 ± 0.008
101.3 kPa, x1 = 0.8972	1.539 ± 0.013	–	1.286 ± 0.011	–	1.08 ± 0.009

c1cscn1 + C1CCCCC1
298.15 K, 101 kPa
Settings	viscosity [mPa·s]
x1 = 0.1468	0.8439 ± 0.022
x1 = 0.2448	0.7891 ± 0.021
x1 = 0.4908	0.8119 ± 0.022
x1 = 0.7468	0.8753 ± 0.023
x1 = 0.8357	0.904 ± 0.024
x1 = 0.8841	0.928 ± 0.025
x1 = 0.9385	0.958 ± 0.025

O=C(O)/C=C\C(=O)O + O
viscosity [mPa·s], 101.32 kPa
Settings	x1 = 0.0171	x1 = 0.03648	x1 = 0.06231	x1 = 0.0943	x1 = 0.145
298.15 K	1.092 ± 0.026	1.349 ± 0.03	1.775 ± 0.035	2.459 ± 0.043	–
313.15 K	0.792 ± 0.019	0.968 ± 0.021	1.255 ± 0.025	1.702 ± 0.03	2.54 ± 0.039

CCOC(=O)c1ccccc1 + CCCCCCCCCCCCCC
101 kPa
Settings	viscosity [mPa·s]
298.15 K, x2 = 0.0376	1.927 ± 0.06
298.15 K, x2 = 0.0653	1.899 ± 0.059
298.15 K, x2 = 0.097	1.866 ± 0.058
298.15 K, x2 = 0.1285	1.84 ± 0.057
298.15 K, x2 = 0.1619	1.815 ± 0.057
298.15 K, x2 = 0.1952	1.799 ± 0.056
298.15 K, x2 = 0.229	1.781 ± 0.056
298.15 K, x2 = 0.269	1.767 ± 0.055
298.15 K, x2 = 0.3084	1.754 ± 0.055
298.15 K, x2 = 0.3521	1.745 ± 0.055
298.15 K, x2 = 0.3928	1.742 ± 0.055
298.15 K, x2 = 0.4877	1.744 ± 0.055
298.15 K, x2 = 0.5485	1.755 ± 0.056
298.15 K, x2 = 0.5924	1.767 ± 0.056
298.15 K, x2 = 0.6572	1.791 ± 0.057
298.15 K, x2 = 0.7238	1.827 ± 0.058
298.15 K, x2 = 0.7795	1.867 ± 0.06
298.15 K, x2 = 0.8695	1.935 ± 0.063
308.15 K, x2 = 0.0358	1.606 ± 0.05
308.15 K, x2 = 0.0727	1.582 ± 0.049
308.15 K, x2 = 0.1009	1.566 ± 0.049
308.15 K, x2 = 0.1305	1.552 ± 0.048
308.15 K, x2 = 0.1614	1.537 ± 0.048
308.15 K, x2 = 0.198	1.524 ± 0.048
308.15 K, x2 = 0.2316	1.515 ± 0.047
308.15 K, x2 = 0.2666	1.506 ± 0.047
308.15 K, x2 = 0.3094	1.498 ± 0.047
308.15 K, x2 = 0.3501	1.493 ± 0.047
308.15 K, x2 = 0.3905	1.49 ± 0.047
308.15 K, x2 = 0.4393	1.489 ± 0.047
308.15 K, x2 = 0.4794	1.491 ± 0.047
308.15 K, x2 = 0.5373	1.498 ± 0.047
308.15 K, x2 = 0.5983	1.51 ± 0.048
308.15 K, x2 = 0.6573	1.527 ± 0.049
308.15 K, x2 = 0.7193	1.552 ± 0.05
308.15 K, x2 = 0.8442	1.615 ± 0.052
308.15 K, x2 = 0.9249	1.663 ± 0.054
318.15 K, x2 = 0.0231	1.332 ± 0.042
318.15 K, x2 = 0.0543	1.31 ± 0.041
318.15 K, x2 = 0.0817	1.291 ± 0.04
318.15 K, x2 = 0.1144	1.274 ± 0.04
318.15 K, x2 = 0.1449	1.259 ± 0.039
318.15 K, x2 = 0.1819	1.245 ± 0.039
318.15 K, x2 = 0.2156	1.233 ± 0.039
318.15 K, x2 = 0.2563	1.225 ± 0.038
318.15 K, x2 = 0.2936	1.219 ± 0.038
318.15 K, x2 = 0.3396	1.213 ± 0.038
318.15 K, x2 = 0.3807	1.212 ± 0.038
318.15 K, x2 = 0.4322	1.213 ± 0.038
318.15 K, x2 = 0.4784	1.216 ± 0.038
318.15 K, x2 = 0.5446	1.226 ± 0.039
318.15 K, x2 = 0.5958	1.237 ± 0.039
318.15 K, x2 = 0.6468	1.251 ± 0.04
318.15 K, x2 = 0.6941	1.267 ± 0.041
318.15 K, x2 = 0.7925	1.306 ± 0.042
318.15 K, x2 = 0.8579	1.336 ± 0.043

CCCNCCC + CCCCCCCO
viscosity [mPa·s], 101.33 kPa
Settings	x1 = 0.0952	x1 = 0.1932	x1 = 0.2891	x1 = 0.3853	x1 = 0.5194	x1 = 0.6089	x1 = 0.717	x1 = 0.8156	x1 = 0.9054
303.15 K	4.145 ± 0.047	3.485 ± 0.04	2.867 ± 0.033	2.311 ± 0.027	1.672 ± 0.02	1.333 ± 0.016	1.02 ± 0.013	0.809 ± 0.01	0.6553 ± 0.0088
313.15 K	3.063 ± 0.035	2.556 ± 0.03	2.111 ± 0.025	1.724 ± 0.021	1.283 ± 0.016	1.045 ± 0.013	0.8136 ± 0.011	0.6509 ± 0.0088	0.5273 ± 0.0074

CCOC(C)(C)C + CCCCOCCO
viscosity [mPa·s], 101 kPa
Settings	293.15 K	298.15 K	303.15 K
x1 = 0.0499	2.901 ± 0.074	2.558 ± 0.066	2.239 ± 0.057
x1 = 0.1	2.603 ± 0.067	2.314 ± 0.059	2.038 ± 0.052
x1 = 0.1511	2.336 ± 0.06	2.092 ± 0.054	1.85 ± 0.047
x1 = 0.2007	2.107 ± 0.054	1.899 ± 0.049	1.687 ± 0.043
x1 = 0.2489	1.91 ± 0.049	1.731 ± 0.044	1.545 ± 0.04
x1 = 0.2999	1.725 ± 0.044	1.573 ± 0.04	1.412 ± 0.036
x1 = 0.3421	1.589 ± 0.041	1.455 ± 0.037	1.312 ± 0.034
x1 = 0.4018	1.417 ± 0.036	1.305 ± 0.034	1.186 ± 0.031
x1 = 0.45	1.296 ± 0.033	1.198 ± 0.031	1.094 ± 0.028
x1 = 0.5002	1.183 ± 0.03	1.097 ± 0.028	1.007 ± 0.026
x1 = 0.5521	1.079 ± 0.028	1.004 ± 0.026	0.925 ± 0.024
x1 = 0.5998	0.993 ± 0.026	0.926 ± 0.024	0.857 ± 0.022
x1 = 0.6538	0.906 ± 0.023	0.847 ± 0.022	0.786 ± 0.02
x1 = 0.6987	0.84 ± 0.022	0.788 ± 0.02	0.734 ± 0.019
x1 = 0.7501	0.773 ± 0.02	0.727 ± 0.019	0.679 ± 0.018
x1 = 0.8	0.714 ± 0.018	0.673 ± 0.017	0.632 ± 0.016
x1 = 0.8492	0.661 ± 0.017	0.626 ± 0.016	0.59 ± 0.015
x1 = 0.8997	0.612 ± 0.016	0.581 ± 0.015	0.55 ± 0.014
x1 = 0.9493	0.57 ± 0.015	0.541 ± 0.014	0.514 ± 0.013

CC1CCCCC1 + CCCO
303.15 K, 101.33 kPa
Settings	viscosity [mPa·s]
x1 = 0.0998	1.42 ± 0.011
x1 = 0.2182	1.188 ± 0.009
x1 = 0.4212	0.918 ± 0.008
x1 = 0.576	0.777 ± 0.007
x1 = 0.7398	0.677 ± 0.006
x1 = 0.9	0.637 ± 0.006
